Molecules are shown by their SMILES.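 These data come from cells grown in 96-well plates and exposed to compound for 48 hours at five concentrations. GI50: concentration for 50% inhibition of growth.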 Calls of active or inactive are those of the source. Rule as the data show it: active = GI50 up to about 1.1 µM and inactive = higher. A value given as a limit tells only on which side of the number the result lay.

Assay in all cases: NCI tumour cell line growth inhibition, 48 h
Test [1] deals with OVCAR-3.
The subject of test [2] is NCI-H460.
In test [3] the test system is DU-145.
Test [4] deals with 786-0.
The test system of test [5] is SF-539.
In test [6] the test system is KM12.
The subject of test [7] is M14.
For test [8], the system named is TK-10.
The subject of test [9] is CCRF-CEM.
Test [10] deals with Hs-578T.
The test system of test [11] is HT-29.
Test [12] relates to HOP-92.
Test [13] deals with K562.
Test [14] deals with CAKI-1.
The test system of test [15] is A498.
Test [16] concerns HOP-62.
In test [17] the test system is HCT-15.
In test [18] the test system is SK-MEL-5.
The subject of test [19] is NCI-H23.
Test [20] has as its system HCC 2998.

Take `c1csc(-c2ccc(-c3cccs3)c3nsnc23)c1`: the GI50 in test [1] was 2.04 µM (inactive); in test [2] it was 21.1 µM (inactive); in test [3], 33.8 µM (inactive); in [4], 22.8 µM (inactive); in test [5], 24.4 µM (inactive); in test [6], 0.327 µM (active). Besides, the GI50 was 37.8 µM (inactive) in test [7]; 7.64 µM (inactive) in test [8]; 8.32 µM (inactive) in test [9]; 16.5 µM (inactive) in [10]; 49.8 µM (inactive) in [11]; 35 µM (inactive) in test [12]. Moreover, the GI50 in test [13] is 9.68 µM (inactive); in test [14], > 59.8 µM (inactive); in test [15] it was > 100 µM (inactive); in test [16], 35.6 µM (inactive); in test [17], 0.261 µM; in test [18] it was > 33.6 µM (inactive). Also, the GI50 in test [19] is 22 µM (inactive).
For the molecule `Nc1c(Cl)ncnc1NCC1(CO)CCC1`, the GI50 in test [1], in [2], in test [3], in test [4], in test [5] and in test [6] was > 100 µM (inactive) in each case. Further, the GI50 in test [8], in [9], in test [10], in test [11], in test [12] and in [13] was > 100 µM (inactive) in each case. Besides, the GI50 in [15] is > 100 µM (inactive); in [16], > 100 µM (inactive); in [17] it was above 100 µM; in test [18], 79.4 µM (inactive); in test [19], > 100 µM (inactive).
For `O=C(c1ccc(Cl)cc1)N(C(=O)N1CCC(c2ccccc2)CC1)c1ccccc1`, the GI50 was 44.8 µM (inactive) in [1]; 59 µM (inactive) in [3]; 70.3 µM (inactive) in test [4]; 65 µM (inactive) in test [5]; 11.4 µM (inactive) in [6]; 18.4 µM (inactive) in [7]. Further, the GI50 in [8] is 30.7 µM (inactive); in [9] it was 18.9 µM (inactive); in test [10], 24.2 µM (inactive); in test [11], 31.3 µM (inactive); in [13], 32.1 µM (inactive); in [14] it was 54.1 µM (inactive). Further, the GI50 was 20.4 µM (inactive) in [15], 15 µM in test [17], 15.4 µM (inactive) in test [18] and 23.9 µM (inactive) in [19].
As for `O=C1N[C@H]2c3c(Cl)sc(Cl)c3[C@@H](O)[C@H]2O1`, the GI50 in [1], in test [2], in [3], in test [4], in test [5] and in test [6] was > 100 µM (inactive) throughout. For the same molecule, the GI50 in test [7], in test [8], in [9], in test [11], in test [13] and in [14] was > 100 µM (inactive) each time. Also, the GI50 in test [15] is > 100 µM (inactive); in test [16] it was > 100 µM (inactive); in test [17], above 100 µM; in [20], > 100 µM (inactive); in [18], > 100 µM (inactive).
Turning to `CC(C(=O)NCNC(=O)c1ccccc1)C(=O)NCc1ccccc1` (centres undefined), the GI50 in [2], in [3], in test [4], in [5], in test [6] and in test [7] was > 100 µM (inactive) in each case. Further, the GI50 in test [8], in test [9], in test [10], in test [11], in test [12] and in [14] was > 100 µM (inactive) each time. The GI50 in test [17] is above 100 µM; in [18], > 100 µM (inactive); in [19], > 100 µM (inactive).
For `O=C(NNC(c1ccccc1)C(F)(F)F)c1ccncc1` (centres undefined), the GI50 in test [2], in [3], in test [4], in test [5], in test [6] and in [7] was > 100 µM (inactive) each time. Also, the GI50 in test [8], in test [9], in [11], in test [12], in [13] and in [14] was > 100 µM (inactive) throughout. Also, the GI50 in [16] is > 100 µM (inactive); in test [17], above 100 µM; in [20] it was > 100 µM (inactive); in test [18], > 100 µM (inactive); in test [19], > 100 µM (inactive).
As for `O=C(O)c1c(-c2nccc3ccccc23)[nH]c(-c2ccccc2)c1S(=O)(=O)O`, the GI50 in [1], in [2], in [3], in test [4], in [5] and in test [6] was > 100 µM (inactive) throughout. The GI50 in test [7], in test [8], in [9], in test [10], in [11] and in test [12] was > 100 µM (inactive) throughout. The GI50 was > 100 µM (inactive) in test [14]; > 100 µM (inactive) in [15]; > 100 µM (inactive) in test [16]; above 100 µM in test [17]; > 100 µM (inactive) in [18]; > 100 µM (inactive) in test [19].
For `Cn1c2c3ccccc3nc-2c(O)c2ccccc21` [HYDROXYCRYPTOLEPINE], the GI50 in [1] was > 100 µM (inactive); in test [2], 59.2 µM (inactive); in test [3], 3.46 µM (inactive); in [4] it was > 100 µM (inactive); in test [5] it was 50.5 µM (inactive); in [6] it was > 100 µM (inactive). Moreover, the GI50 in test [7] was > 100 µM (inactive); in test [8] it was > 100 µM (inactive); in test [9], 90.6 µM (inactive); in test [11], > 100 µM (inactive); in [12], > 100 µM (inactive); in test [13], > 100 µM (inactive). The GI50 was 8.91 µM (inactive) in [14]; > 100 µM (inactive) in [15]; > 100 µM (inactive) in test [16]; 53.3 µM in test [17]; > 100 µM (inactive) in [20]; 41.2 µM (inactive) in [18]. Also, in test [19], the GI50 is > 100 µM (inactive).
`COC(=O)[C@H](C)N(C)C(=O)[C@H](C)N1[C@@H](c2ccccc2)COC1(C)C`: the GI50 in test [1], in test [2], in test [4], in test [5], in test [6] and in test [7] was > 100 µM (inactive) throughout. The GI50 in test [8], in test [9], in [10], in [11], in [12] and in test [13] was > 100 µM (inactive) in each case. Besides, the GI50 in [14] was > 100 µM (inactive); in [15] it was > 100 µM (inactive); in [16], > 100 µM (inactive); in test [17], above 100 µM; in [18], > 100 µM (inactive); in test [19] it was > 100 µM (inactive).
For the molecule `Cc1ccc([S+]([O-])/C=C(\NC(=O)OCc2ccccc2)C(F)(F)F)cc1` (centres undefined), the GI50 was 43.6 µM (inactive) in test [1]; 41.4 µM (inactive) in test [2]; 77.3 µM (inactive) in test [3]; 53.3 µM (inactive) in [4]; 26.7 µM (inactive) in [5]; 32.9 µM (inactive) in test [6]. For the same molecule, the GI50 is > 100 µM (inactive) in [7]; 80.2 µM (inactive) in test [8]; 31.6 µM (inactive) in test [9]; 32.1 µM (inactive) in test [11]; 55.8 µM (inactive) in [12]; 28.1 µM (inactive) in [13]. The GI50 in [14] was 42 µM (inactive); in [17], 33.4 µM; in [20] it was 37.5 µM (inactive); in [18], 60.4 µM (inactive); in test [19], 33.4 µM (inactive).
Take `C(=C\c1cc[n+](CCc2ccccc2)cc1)/c1ccccc1`: the GI50 in [1] was 5.26 µM (inactive); in test [2], 8.69 µM (inactive); in test [3], 27 µM (inactive); in test [4], 21.8 µM (inactive); in test [5], 20.4 µM (inactive); in test [6], 3.98 µM (inactive). The GI50 in test [7] is 7.91 µM (inactive); in test [8] it was 21.5 µM (inactive); in [9], 13.4 µM (inactive); in [10], 15.2 µM (inactive); in test [11], 6.79 µM (inactive); in test [12], 24.7 µM (inactive). Moreover, the GI50 is 16.8 µM (inactive) in [13]; 22.4 µM (inactive) in test [14]; 12.6 µM (inactive) in test [16]; above 100 µM in [17]; 1.28 µM (inactive) in [18]; 12.5 µM (inactive) in test [19].
As to `c1ccc2c(c1)[n-]n1c3ccc4nonc4c3n[n+]21`, the GI50 in test [1] was > 100 µM (inactive); in [2], 93.3 µM (inactive); in test [3], > 100 µM (inactive); in test [4], > 100 µM (inactive); in test [5] it was > 100 µM (inactive); in test [6], > 100 µM (inactive). Also, the GI50 in [7], in [9], in test [11], in test [12], in test [13] and in test [14] was > 100 µM (inactive) throughout. In addition, the GI50 in [15] is > 100 µM (inactive); in [16], 84.5 µM (inactive); in test [17] it was above 100 µM; in [20], > 100 µM (inactive); in [18] it was > 100 µM (inactive); in test [19], > 100 µM (inactive).
